According to patent US5360613A, “Method of reducing blood levels of total cholesterol and low-density lipoprotein cholesterol” (Iowa State University Research Foundation, Inc., priority 1993, dated 1994):

What was measured:
[1] = system: plasma cholesterol and triglycerides; assay: Hamster feeding study, plasma cholesterol and triglycerides (Example I, Table A); assay type: in vivo, hamsters; details: for % Change HDL cholesterol / % Change HDL/LDL / % Change LDL cholesterol / % Change Total cholesterol / % Change Triglycerides: HMB vs control
Method: A preliminary experiment was carried out using hamsters as the test animal and Na-HMB as the therapeutic agent. The experimental details and the results obtained are described as follows.
Pregnant Female hamsters were housed and allowed to give birth. At three weeks of age, litters were subdivided into pairs within a sex. The pairs of hamsters were then assigned randomly a purified diet based on casein and cornstarch with either contained 0.1% NaCl (control) or one containing 0.1% Na-HMB (HMB). They were maintained on this diet for 6 weeks at which time they were killed by decapitation and blood collected into EDTA containing tubes. Blood was separated by centrifugation and plasma collected. The unfrozen plasma was treated with an LDL precipitating agent, centrifuged and the supernatant collected. The whole plasma and supernatant were assayed for cholesterol by an enzymatic method. Plasma cholesterol estimated total cholesterol while the supernatant represented HDL cholesterol. LDL cholesterol was estimated by the formula: LDL-Cholesterol=(Total cholesterol)-(HDL cholesterol)-(triglycerides X 0.2). Total triglycerides in plasma were estimated by an enzymatic assay.

blood cholesterol = assay: Human dose-response study, blood cholesterol, triglycerides and glucose (Example V, Table E); assay type: in vivo, humans
Method: Higher dose levels than in Example IV of Ca-HMB were tested in humans. The objective was to obtain an indication of whether higher doses could be safely administered, and also whether higher doses might provide a greater reduction in total cholesterol and LDL cholesterol.
Normal humans were used in the study. Ca-HMB was administered in 250 mg capsules, and the subjects were instructed to take the capsules in 4 equal doses daily. No control of diet was attempted except they were instructed to eat as they normally would. On alternate days the subjects had blood drawn before the morning meal and before they took the morning HMB dose. Four subjects were studied for dose level of 05., 1, 2 and 4 grams per day.
Results from all samples of each subject were subjected to linear regression and the slope and intercept used to calculate the % change in concentration after 8 days on treatment. The percentage changes were then subjected to ANOVA-regression to determine if there was a linear effect of dosage on the parameter. The dose-response effect (p<) is listed in the linear effect column of Table E.

[2] = system: acetate incorporation into cholesterol by the rat liver; details: 0.5 g/kg body weight for 2 and 4 days; cited from earlier work
plasma cholesterol = assay: Lamb feeding study, plasma cholesterol (Example II, Table B); assay type: in vivo, lambs
Method: In view of the encouraging results of Example I, a large mammal study was carried out with lambs. HMB was administered in the form of Ca-HMB.
Cross-bred lambs were obtained from a research flock. Males were selected from a pool of 108 rams while females were selected from a pool of 63 females. Selection was based on weight range, breed and previous performance. Breeding consisted of Dorset, Polypay and Suffold crosses. Males were divided into 5 weight blocks and females into 3 weight blocks. The two heaviest male blocks contained 27 lambs, allotted to 3 pens. All other blocks contained 18 lambs, allotted to 2 pens. Animals were weighed on consecutive days prior to starting the experiment. All animals were shorn 100 days into the experiment. The animals were housed in a single confinement unit with uniform pens. The feeders were concrete bunks with water supplied by several nipple waterers per pen. Dirt flooring was bedded with oat straw when necessary. Weight blocks were placed in adjacent pens with treatment randomly assigned to the blocks. The ration was complete in all nutrients for growing sheep. The diet was formulated to contain protein in excess of the normal requirement in an effort to assure that protein was not a limiting factor for any growth response. The feeding schedule consisted of two feedings per day with the amount controlled so that the animals had eaten all the feed from the previous feeding before being fed again. Also with the feed allotment, a top-dressing of 20 g of either a control premix containing HMB was added at the equivalent of 0.5 gram per animal per day and 1.5 gram per animal per day.
Ca-HMB was prepared by minor modification of the method of Coffman, et al. J. Am. […] Each batch was given a lot number and the purity assessed by high performance liquid chromatography. A single peak was measured when HMB was chromatographed on a C18 column and eluted with 0.01M phosphate buffer, pH 7.0. […]
Blood was collected from each animal. The plasma was analyzed for cholesterol using an Abbott Spectrum Diagnostic system. […] A linear effect of HMB level was evaluated.

[3] = females, 0.1% Na-HMB diet, 6 weeks
[4] = males, 0.1% Na-HMB diet, 6 weeks
[5] = 4 grams per day, end of the one week study

SMILES: CC(C)(O)CC(=O)O [HMB, β-hydroxy-β-methylbutyric acid]
- HDL cholesterol ([1]; females, 0.1% Na-HMB diet, 6 weeks, control 125): 132 mg %
- Total cholesterol ([1]; females, 0.1% Na-HMB diet, 6 weeks, control 237): 228 mg %
- Triglycerides ([1]; females, 0.1% Na-HMB diet, 6 weeks, control 240): 212 mg %
- HDL/LDL ([1]; females, 0.1% Na-HMB diet, 6 weeks, control .51): .41
- LDL cholesterol ([1]; females, 0.1% Na-HMB diet, 6 weeks, estimated by formula, control 64): 53 mg %
- % Change HDL cholesterol [1, 3]: +5%
- % Change HDL/LDL [1, 3]: -20%
- % Change LDL cholesterol [1, 3]: -17%
- % Change Total cholesterol [1, 3]: -4%
- % Change Triglycerides [1, 3]: -11%
- HDL cholesterol ([1]; hamsters): a trend to increase HDL cholesterol
- LDL cholesterol ([1]; hamsters): markedly lower LDL cholesterol
- ratio of LDL/HDL ([1]; hamsters): positively affected
- HDL cholesterol ([1]; males, 0.1% Na-HMB diet, 6 weeks, control 111): 118 mg %
- Total cholesterol ([1]; males, 0.1% Na-HMB diet, 6 weeks, control 217): 208 mg %
- Triglycerides ([1]; males, 0.1% Na-HMB diet, 6 weeks, control 232): 226 mg %
- HDL/LDL ([1]; males, 0.1% Na-HMB diet, 6 weeks, control .53): .38
- LDL cholesterol ([1]; males, 0.1% Na-HMB diet, 6 weeks, estimated by formula, control 59): 45 mg %
- % Change HDL cholesterol [1, 4]: +5%
- % Change HDL/LDL [1, 4]: -28%
- % Change LDL cholesterol [1, 4]: -24%
- % Change Total cholesterol [1, 4]: -4%
- % Change Triglycerides [1, 4]: -2%
- cholesterol (blood cholesterol; 2 grams daily): appeared to decrease cholesterol
- decrease of LDL cholesterol (blood cholesterol; [5]): about 6%
- decrease of total cholesterol (blood cholesterol; [5]): about 6%
- cholesterol (blood cholesterol; doses lower than 2 grams daily): no effect was clearly observable
- blood cholesterol (blood cholesterol; over the course of the week): decreased in a dose-responsive manner
- rate of acetate incorporation into cholesterol by the rat liver [2]: not significantly lowered
- Plasma Cholesterol (plasma cholesterol; 0.5 g HMB daily (Ca-HMB), control 54.3, linear effect 0.05): 51.3
- Plasma Cholesterol (plasma cholesterol; 1.5 g HMB daily (Ca-HMB), control 54.3, linear effect 0.05): 48.1
- Plasma Cholesterol (plasma cholesterol; oral consumption, lambs): decreased plasma cholesterol
